Patent US20220313710A1, “COMPOSITIONS AND METHODS USING NON-STEROIDAL ANTI-INFLAMMATORY DRUGS” (APPLIED BIOLOGICAL LABORATORIES, INC., priority 2019, published 2022)

Columns and labels:
Type in all cases: cell-based
[1] = tested on: 3D model of human airway epithelium; settings: 48 h, 6 mg/ml
Experimental: Various compositions were tested for their ability to protect a 3D model of human airway epithelium, constituted with primary human epithelial cells freshly isolated from nasal (MucilAir™ nasal pool), or tracheal or bronchial biopsies (MatTek PE-200-6.5). MucilAir™ and MatTek tissues are reconstituted human 3D tissue from airways and lung surgical pieces, fully differentiated, pseudostratified in vitro epithelium. MucilAir™_Pool is of nasal polyp origin and reconstituted with a mixture of cells isolated from 14 different donors. […] MatTek tissues are from tracheo-bronchial origin. The respiratory epithelium lining the nose and throat have very similar histology and architecture. These two different models reconfirm that models from different origin have similar responses to treatment in the case that one model may have more underlying inflammation, or other variability with respect to its retrieval than another. […]
Tissue integrity was also monitored using transepithelial electrical resistance (“TEER”) measurements. […]
For TEER measurements, 200 μL of warm MucilAir™ media or MatTek TEER buffer was applied on the apical side of each insert. […] The resistance (Ω) is read on the Voltohmmeter and the TEER value was calculated with the following formula: TEER (Ω·cm^2)=(resistance value (Ω)−100 (Ω))×0.33 (cm^2). […]

[2] = tested on: 3D model of human airway epithelium; assay: IL-8 ELISA on basal medium of bradykinin-stimulated 3D airway epithelia (MucilAir, MatTek)
Experimental: (§1) Various compositions were tested for their ability to protect a 3D model of human airway epithelium, constituted with primary human epithelial cells freshly isolated from nasal (MucilAir™ nasal pool), or tracheal or bronchial biopsies (MatTek PE-200-6.5). MucilAir™ and MatTek tissues are reconstituted human 3D tissue from airways and lung surgical pieces, fully differentiated, pseudostratified in vitro epithelium. MucilAir™_Pool is of nasal polyp origin and reconstituted with a mixture of cells isolated from 14 different donors. […] MatTek tissues are from tracheo-bronchial origin. The respiratory epithelium lining the nose and throat have very similar histology and architecture. These two different models reconfirm that models from different origin have similar responses to treatment in the case that one model may have more underlying inflammation, or other variability with respect to its retrieval than another.
(§2) Compositions were formulated with various concentrations of acetylsalicylic acid (ASA 0.6 mg/ml or ASA 6 mg/ml) in an aqueous saline solution vehicle such as 0.9% NaCl, 1.25 mM CaCl2, 10 mM HEPES. 10 μL of each formulation was added apically either to the MucilAir™ or MatTek tissues. Formulations were either added 10 minutes after activation of an inflammatory response in the media (FIGS. 1A-B, 3A, 4A), or 5 minutes before activation of an inflammatory response in the media (FIGS. 2A-B, 3B, 4B). Due to the rate of saliva production and concomitant dilution of acetylsalicylic acid on the mucosa, administration of each concentration in vitro correlates to a 10× concentration in product form. For example, 0.6 mg/ml ASA in the in vitro measurements corresponds administration of 6 mg/ml ASA in compositions, and 6 mg/ml […] corresponds to administration of 60 mg/ml in compositions.
(§3) Typically, the inflammatory cytokine bradykinin stimulates the prostaglandin pathway (through arachidonic acid) which then stimulates IL-8, another inflammatory cytokine. […] The inflammatory response of the prostaglandin pathway was stimulated through the addition of 10 μL of 25 mg/ml bradykinin protein was applied to the apical side of the MucilAir™ media.
(§4) Four hours following bradykinin application various measurements of the inflammatory response were measured. Epithelia were washed twice with MucilAir™ culture medium in order to clean the inoculum. Liquid aliquots from the basal medium were collected and stored at −80° C. for future study.
(§5) Prostaglandin E2 or IL-8 enzyme-linked immunosorbent assays (ELISA) were performed on the liquid aliquots from the basal medium to determine the amount of prostaglandin E2 produced as a result of inflammatory conditions initiated in each test condition. […] Although, acetylsalicylic acid is typically administered in doses greater than these measured, this dosage increased the inflammatory response.
MatTek (tracheal bronchial tissue) or MucilAir (nasal polyps) 3D inserts were placed in pre-warmed media corresponding to each cell system and incubated for 15 minutes at 37° C. L of saliva (negative control) or treatment was added to the apical surfaces. 5 minutes later, 10 μL of saliva or bradykinin was added to the apical side as well. Bradykinin was obtained from Tocris or New England Peptide (NEP) as indicated. At 4 hours, samples from the basal media were collected and frozen at −80° for PGE-2 ELISA measurements. […] TEER was measured again at 48 hours. […]

[3] = tested on: 3D model of human airway epithelium; assay: Prostaglandin E2 ELISA on basal medium of bradykinin-stimulated 3D airway epithelia (MucilAir, MatTek)
Experimental: as §1, §2, §3, §4, §5
MatTek (tracheal bronchial tissue) or MucilAir (nasal polyps) 3D inserts were placed in pre-warmed media corresponding to each cell system and incubated for 15 minutes at 37° C. L of saliva (negative control) or treatment was added to the apical surfaces. 5 minutes later, 10 μL of saliva or bradykinin was added to the apical side as well. Bradykinin was obtained from Tocris or New England Peptide (NEP) as indicated. At 4 hours, samples from the basal media were collected and frozen at −80° for PGE-2 ELISA measurements. At 24 hours, the inserts were moved to fresh basal media (corresponding to each cell system) and 200 L of media were added to each apical side for TEER analysis as described previously. The plate was then incubated for 5 minutes. Following TEER measurements, the apical solution was removed and 10 μL of each treatment (or saliva) was added to the apical surface. No bradykinin was added. TEER was measured again at 48 hours. Additionally, at 24 hours and 48 hours, basal media was collected and frozen for IL-8 and LDH analyses. […]

[4] = dose above the therapeutic window
[5] = overall statement, concentration not given

`CC(=O)Oc1ccccc1C(=O)O` [ASA, acetylsalicylic acid] was tested, and the “TEER (barrier function of the epithelia)” value [1] was < 100 Ω·cm^2, the IL-8 concentration ([2]; 0.6 mg/ml ASA, therapeutic and prophylactic modalities (FIGS. 4A, 4B)) was “A similar result was not observed” and the IL-8 concentration ([2]; 6 mg/ml ASA, prophylactic modality (added before bradykinin, FIG. 4B)) was “significantly greater”. For the same compound, the IL-8 concentration ([2]; 6 mg/ml ASA, therapeutic modality (added after bradykinin, FIG. 4A)) was “significantly greater”, the “IL-8 relative to maximum bradykinin-induced level” value [2, 4] was “increased” and the “levels of IL-8 protein” value [2, 5] was “did not appreciably decrease”. The “prostaglandin E2 production (inflammatory response) versus positive control” value ([3]; 0.6 mg/ml ASA added 5 minutes before bradykinin (FIGS. 2A, 2B)) was “did inhibit inflammation in a statistically significant manner”, the “prostaglandin E2 production (inflammatory response) versus positive control” value ([3]; 0.6 mg/ml ASA added 10 minutes after bradykinin, measured 4 hours after bradykinin (FIGS. 1A, 1B)) was “resulted in an anti-inflammatory response” and the “prostaglandin E2 production (inflammatory response) versus positive control” value ([3]; 6 mg/ml ASA added 5 minutes before bradykinin (FIG. 2A)) was “no statistical significance with respect to positive control”. For the same compound, the “prostaglandin E2 production (inflammatory response) versus positive control” value ([3]; 6 mg/ml ASA added 10 minutes after bradykinin, measured 4 hours after bradykinin (FIG. 1A)) was “increased the inflammatory response in a statistically significant matter”, the “PGE2 relative to maximum bradykinin-induced level” value [3, 4] was “increased” and the “PGE-2 levels (bradykinin induced)” value [3, 5] was “significantly decreasing”.
